What was measured:
[1] = biological target: T1, α4β1 integrin (Homo sapiens, UniProt P05556+P13612); assay: Inhibition of adhesion of calcein AM-labeled Ramos cells to CS1 (fibronectin) peptide-conjugated ovalbumin; type: cell-based; conditions: Ramos cell adhesion to CS1-conjugated ovalbumin, 30 minutes at 37° C.
T1 construct: endogenous in cells; host or cells: Ramos cells
Procedure, shortened: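 Calcein AM-labeled Ramos cells (2.5×10^5/well) added with or without compound to plates coated with CS1 peptide-ovalbumin conjugate in TBS containing 1 mM each MgCl2, CaCl2, MnCl2; 30 min at 37° C. Adherent cells lysed and quantified fluorometrically after washes; IC50 as dose for 50% inhibition, or percent inhibition at 100 μM.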

T1 sequence (P13612 34-1032): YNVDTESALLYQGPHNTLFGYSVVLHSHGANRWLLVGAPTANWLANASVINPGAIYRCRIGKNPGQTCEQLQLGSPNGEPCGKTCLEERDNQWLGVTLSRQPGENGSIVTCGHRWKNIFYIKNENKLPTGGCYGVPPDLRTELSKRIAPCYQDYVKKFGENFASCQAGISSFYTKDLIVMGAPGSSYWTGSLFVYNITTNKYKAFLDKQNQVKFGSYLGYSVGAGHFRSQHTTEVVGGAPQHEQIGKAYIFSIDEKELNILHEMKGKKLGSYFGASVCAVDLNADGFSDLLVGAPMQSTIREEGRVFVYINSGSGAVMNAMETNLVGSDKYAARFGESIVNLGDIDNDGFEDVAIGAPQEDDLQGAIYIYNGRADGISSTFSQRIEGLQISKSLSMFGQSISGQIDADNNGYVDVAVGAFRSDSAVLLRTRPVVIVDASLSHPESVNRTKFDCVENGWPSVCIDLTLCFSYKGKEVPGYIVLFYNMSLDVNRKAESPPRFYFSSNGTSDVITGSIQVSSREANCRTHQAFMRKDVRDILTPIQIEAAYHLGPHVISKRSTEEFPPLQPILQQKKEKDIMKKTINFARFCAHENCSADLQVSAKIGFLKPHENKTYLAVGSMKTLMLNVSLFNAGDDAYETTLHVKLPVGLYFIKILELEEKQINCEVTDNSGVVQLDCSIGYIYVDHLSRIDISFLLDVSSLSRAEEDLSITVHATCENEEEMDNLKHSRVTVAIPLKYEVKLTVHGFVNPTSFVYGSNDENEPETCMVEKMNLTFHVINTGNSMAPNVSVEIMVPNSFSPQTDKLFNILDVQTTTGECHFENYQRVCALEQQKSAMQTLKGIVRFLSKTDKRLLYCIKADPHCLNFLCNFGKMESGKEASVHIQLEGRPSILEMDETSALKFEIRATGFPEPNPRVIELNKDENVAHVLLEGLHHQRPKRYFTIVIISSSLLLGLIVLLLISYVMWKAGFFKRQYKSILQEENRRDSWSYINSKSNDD
T1 sequence (P05556 21-798): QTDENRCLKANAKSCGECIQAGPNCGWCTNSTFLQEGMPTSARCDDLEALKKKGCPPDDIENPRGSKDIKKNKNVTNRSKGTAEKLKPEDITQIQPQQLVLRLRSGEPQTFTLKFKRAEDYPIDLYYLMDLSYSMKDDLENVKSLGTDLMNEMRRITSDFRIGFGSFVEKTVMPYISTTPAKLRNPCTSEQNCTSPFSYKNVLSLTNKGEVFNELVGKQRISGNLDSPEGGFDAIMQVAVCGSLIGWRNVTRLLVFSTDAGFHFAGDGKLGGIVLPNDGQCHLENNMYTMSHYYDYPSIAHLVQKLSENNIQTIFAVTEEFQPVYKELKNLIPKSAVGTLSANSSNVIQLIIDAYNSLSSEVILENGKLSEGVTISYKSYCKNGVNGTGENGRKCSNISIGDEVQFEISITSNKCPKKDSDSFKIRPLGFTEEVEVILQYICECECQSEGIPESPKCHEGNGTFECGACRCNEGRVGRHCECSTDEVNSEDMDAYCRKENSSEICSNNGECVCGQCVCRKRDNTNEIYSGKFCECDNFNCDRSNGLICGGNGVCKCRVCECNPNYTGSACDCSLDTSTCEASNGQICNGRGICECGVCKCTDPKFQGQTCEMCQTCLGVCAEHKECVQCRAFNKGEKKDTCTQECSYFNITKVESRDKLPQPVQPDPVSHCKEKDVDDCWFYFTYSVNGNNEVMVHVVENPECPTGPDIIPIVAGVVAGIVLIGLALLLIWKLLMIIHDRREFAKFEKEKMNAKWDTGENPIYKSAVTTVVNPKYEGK

IC50 ([1]; Table 4)	Structure (SMILES)	other results
4 nM	CCCCC(C(=O)N[C@@H](CC(=O)O)c1cccc(OC(C)C)c1)n1cc(C)cc(Cc2ccccc2)c1=O (stereo partly drawn) [(3S)-3-{[2-(3-benzyl-5-methyl-2-oxopyridin-1(2H)-yl)hexanoyl]amino}-3-(3-isopropoxyphenyl)propanoic acid]	–
10 nM	CCCCC(C(=O)N[C@@H](CC(=O)O)c1cccc(OCCC)c1)n1cc(C)cc(Cc2ccccc2)c1=O (stereo partly drawn) [(3S)-3-{[2-(3-benzyl-5-methyl-2-oxopyridin-1(2H)-yl)hexanoyl]amino}-3-(3-propoxyphenyl)propanoic acid]	–
25 nM	CCCCC(C(=O)N[C@@H](CC(=O)O)c1ccc(Cl)c(OC(C)C)c1)n1cc(C)cc(Cc2ccccc2)c1=O (stereo partly drawn) [(3S)-3-{[2-(3-benzyl-5-methyl-2-oxopyridin-1(2H)-yl)hexanoyl]amino}-3-(4-chloro-3-isopropoxyphenyl)propanoic acid]	–
140 nM	CCCCC(C(=O)N[C@@H](CC(=O)O)c1cc(C)c(OC)c(C)c1)n1cc(C)cc(Cc2ccccc2)c1=O (stereo partly drawn) [(3S)-3-{[2-(3-benzyl-5-methyl-2-oxopyridin-1(2H)-yl)hexanoyl]amino}-3-(4-methoxy-3,5-dimethylphenyl)propanoic acid]	–
9 nM	CCCCC(C(=O)N[C@@H](CC(=O)O)c1ccc(OC)c(C)c1)n1cc(C)cc(Cc2ccccc2)c1=O (stereo partly drawn) [(3S)-3-{[2-(3-benzyl-5-methyl-2-oxopyridin-1(2H)-yl)hexanoyl]amino}-3-(4-methoxy-3-methylphenyl)propanoic acid]	–
300 nM	CCCCC(C(=O)N[C@@H](CC(=O)O)c1ccc(-c2ccc(OC)cc2)cc1)n1cc(C)cc(Cc2ccccc2)c1=O (stereo partly drawn) [(3S)-3-{[2-(3-benzyl-5-methyl-2-oxopyridin-1(2H)-yl)hexanoyl]amino}-3-(4′-methoxy-1,1′-biphenyl-4-yl)propanoic acid]	–
40 nM	CCCCC(C(=O)N[C@@H](CC(=O)O)c1ccc2cc(OC)ccc2c1)n1cc(C)cc(Cc2ccccc2)c1=O (stereo partly drawn) [(3S)-3-{[2-(3-benzyl-5-methyl-2-oxopyridin-1(2H)-yl)hexanoyl]amino}-3-(6-methoxy-2-naphthyl)propanoic acid]	–
27 nM	CCCCC(C(=O)N[C@@H](CC(=O)O)c1ccc(OC(F)(F)F)cc1)n1cc(C)cc(Cc2ccccc2)c1=O (stereo partly drawn) [(3S)-3-{[2-(3-benzyl-5-methyl-2-oxopyridin-1(2H)-yl)hexanoyl]amino}-3-[4-(trifluoromethoxy)phenyl]propanoic acid]	–
10 nM	CCCC[C@@H](C(=O)N[C@@H](CC(=O)O)c1cc(OC)cc(OC)c1)n1cc(C)cc(Cc2ccccc2)c1=O [(3S)-3-{[(2S)-2-(3-benzyl-5-methyl-2-oxopyridin-1(2H)-yl)hexanoyl]amino}-3-(3,5-dimethoxyphenyl)propanoic acid]	–
17 nM	CCCC[C@@H](C(=O)N[C@@H](CC(=O)O)c1ccc(OC)c(F)c1)n1cc(C)cc(Cc2ccccc2)c1=O [(3S)-3-{[(2S)-2-(3-benzyl-5-methyl-2-oxopyridin-1(2H)-yl)hexanoyl]amino}-3-(3-fluoro-4-methoxyphenyl)propanoic acid]	–

The next lines start with the compound.

Structure (SMILES)	IC50 ([1]; Table 4)	other results
CCCCC(C(=O)N[C@@H](CC(=O)O)c1ccc2c(c1)OCO2)N1C(=O)N(Cc2ccccc2)C(=O)C1(C)C (stereo partly drawn) [(3S)-3-(1,3-benzodioxol-5-yl)-3-({2-[5,5-dimethyl-2,4-dioxo-3-(phenylmethyl)tetrahydro-1H-imidazol-1-yl]hexanoyl}amino)propanoic acid]	–	IC50 ([1]; Table 3): 20000 nM; melting point: 53 to 55 °C
CCCCC(C(=O)N[C@@H](CC(=O)O)c1cc(C)c(OC)cc1C)n1cc(C)cc(Cc2ccccc2)c1=O (stereo partly drawn) [(3S)-3-{[2-(3-benzyl-5-methyl-2-oxopyridin-1(2H)-yl)hexanoyl]amino}-3-(4-methoxy-2,5-dimethylphenyl)propanoic acid]	283 nM	–
CCCCC(C(=O)N[C@@H](CC(=O)O)c1ccc(-c2ccc(C)cc2)cc1)n1cc(C)cc(Cc2ccccc2)c1=O (stereo partly drawn) [(3S)-3-{[2-(3-benzyl-5-methyl-2-oxopyridin-1(2H)-yl)hexanoyl]amino}-3-(4′-methyl-1,1′-biphenyl-4-yl)propanoic acid]	250 nM	–
CCCCC(C(=O)N[C@@H](CC(=O)O)c1cccc(OC(F)(F)F)c1)n1cc(C)cc(Cc2ccccc2)c1=O (stereo partly drawn) [(3S)-3-{[2-(3-benzyl-5-methyl-2-oxopyridin-1(2H)-yl)hexanoyl]amino}-3-[3-(trifluoromethoxy)phenyl]propanoic acid]	40 nM	–
CCCCC(C(=O)N[C@@H](CC(=O)O)c1cccc(C(F)(F)F)c1)n1cc(C)cc(Cc2ccccc2)c1=O (stereo partly drawn) [(3S)-3-{[2-(3-benzyl-5-methyl-2-oxopyridin-1(2H)-yl)hexanoyl]amino}-3-[3-(trifluoromethyl)phenyl]propanoic acid]	250 nM	–
CCCCC(C(=O)N[C@@H](CC(=O)O)c1ccccc1)n1cc(C)cc(Cc2ccccc2)c1=O (stereo partly drawn) [(3S)-3-{[2-(3-benzyl-5-methyl-2-oxopyridin-1(2H)-yl)hexanoyl]amino}-3-phenylpropanoic acid]	10 nM	–
CCCC[C@@H](C(=O)N[C@@H](CC(=O)O)c1ccc(-c2c(OC)cccc2OC)cc1)n1cc(C)cc(Cc2ccccc2)c1=O [(3S)-3-{[(2S)-2-(3-benzyl-5-methyl-2-oxopyridin-1(2H)-yl)hexanoyl]amino}-3-(2′,6′-dimethoxy-1,1′-biphenyl-4-yl)propanoic acid]	200 nM	–
CCCCC(C(=O)N[C@@H](CC(=O)O)c1cc(OC)c(OC)c(OC)c1)n1cc(C)cc(Cc2ccccc2)c1=O (stereo partly drawn) [(3S)-3-{]2-(3-benzyl-5-methyl-2-oxopyridin-1(2H)-yl)hexanoyl]amino}-3-(3,4,5-trimethoxyphenyl)propanoic acid]	33 nM	–
CCCC[C@@H](C(=O)N[C@@H](CC(=O)O)c1ccc2c(c1)OCO2)n1cc(C)cc(Cc2ccccc2)c1=O [Compound 10]	–	IC50 ([1]; Table 1): 3 nM
